In general, IC50 refers to the midpoint of a concentration-inhibition curve.

The record followed here is patent US20240245682A1, “ALPHA-V-BETA-8 INTEGRIN INHIBITORS AND USES THEREOF” (Pliant Therapeutics, Inc., priority 2022, published 2024).

Assay in all cases: AlphaScreen proximity-based integrin binding assay with TGF-b1 LAP
Holding throughout (conditions): values given as ranges
A general note: Alpha assays give light when donor and acceptor beads are brought close together.

The target in one assay is human integrin αVβ8 (Homo sapiens, UniProt P06756+P26012). The procedure: (§1) The biochemical potency of the disclosed compounds was determined using the AlphaScreen® (Perkin Elmer, Waltham, MA) proximity-based assay as described previously (Ullman E F et al., Luminescent oxygen channeling immunoassay: Measurement of particle binding kinetics by chemiluminescence. Proc. Natl. Acad. Sci. USA, Vol. 91, pp. 5426-5430, June 1994, herein incorporated by reference in its entirety). To gauge the potency of inhibitors of binding to each of human integrins αVβ1, αVβ6, and αVβ8, inhibitor compounds were independently incubated with one of αVβ1, αVβ6, or αVβ8, together with TGF-b1 LAP and biotinylated anti-LAP antibody plus acceptor and donor beads, following the manufacture's recommendations. The donor beads were coated with streptavidin. […] All incubations occurred at room temperatures in 50 mM Tris-HCl, pH 7.5, 0.1% BSA supplemented with 1 mM each CaCl2 and MgCl2.
(§2) The order of reagent addition was as follows:
(§3) 1. αVβ1, αVβ6, or αVβ8 integrin, test inhibitor compound, LAP, biotinylated anti-LAP antibody and acceptor beads were all added together.
(§4) 2. After 2 hours, donor beads were added. After another 30 minute incubation, samples were then read.
(§5) Integrin binding was evaluated by exciting donor beads at 680 nm, and measuring the fluorescent signal produced, between 520-620 nm, using a Biotek Instruments (Winooski, VT, USA) SynergyNeo2 multimode plate reader. Compound potency was assessed by determining inhibitor concentrations required to reduce fluorescent light output by 50%. Data analysis for IC50 determinations was carried out by nonlinear four parameter logistic regression analysis using Dotmatics ELN Software (Core Informatics Inc., Branford, Ct). […] Comp #in the Table and Examples below refers to the compound of the corresponding Example number as described in the Synthetic Examples.

The next assay addresses human integrin αVβ6 (Homo sapiens, UniProt P06756+P18564). On the procedure: as §1, §2, §3, §4, §5
In the next assay the target is human integrin αVβ1 (Homo sapiens, UniProt P05556+P06756). The procedure: as §1, §2, §3, §4, §5
Sequence of human integrin αVβ1 (P06756 31-992 limits assumed): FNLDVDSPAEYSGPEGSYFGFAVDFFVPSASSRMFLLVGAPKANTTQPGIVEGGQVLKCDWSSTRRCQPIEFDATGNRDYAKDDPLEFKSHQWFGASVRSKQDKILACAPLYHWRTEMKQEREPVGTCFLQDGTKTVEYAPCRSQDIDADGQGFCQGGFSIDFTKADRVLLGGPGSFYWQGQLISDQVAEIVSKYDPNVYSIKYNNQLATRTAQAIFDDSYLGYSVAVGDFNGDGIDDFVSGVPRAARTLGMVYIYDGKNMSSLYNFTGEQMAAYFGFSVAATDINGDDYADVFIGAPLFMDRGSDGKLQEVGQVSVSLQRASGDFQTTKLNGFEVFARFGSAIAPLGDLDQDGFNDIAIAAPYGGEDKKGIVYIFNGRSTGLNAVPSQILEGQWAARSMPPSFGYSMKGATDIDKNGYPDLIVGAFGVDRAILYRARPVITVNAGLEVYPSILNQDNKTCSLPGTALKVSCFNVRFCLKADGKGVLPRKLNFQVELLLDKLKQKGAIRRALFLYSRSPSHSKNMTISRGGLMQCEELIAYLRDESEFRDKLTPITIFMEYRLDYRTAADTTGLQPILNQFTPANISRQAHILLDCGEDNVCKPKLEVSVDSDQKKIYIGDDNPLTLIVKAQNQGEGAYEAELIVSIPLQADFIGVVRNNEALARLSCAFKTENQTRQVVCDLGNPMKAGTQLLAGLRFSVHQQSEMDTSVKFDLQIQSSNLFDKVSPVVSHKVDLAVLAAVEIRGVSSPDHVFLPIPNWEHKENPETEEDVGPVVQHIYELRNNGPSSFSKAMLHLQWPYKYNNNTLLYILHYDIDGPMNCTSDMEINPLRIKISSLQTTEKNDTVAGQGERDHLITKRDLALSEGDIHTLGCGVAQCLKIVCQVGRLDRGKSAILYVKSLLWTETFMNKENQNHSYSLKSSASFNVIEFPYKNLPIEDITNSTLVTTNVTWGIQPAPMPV
Sequence of human integrin αVβ1 (P05556 21-728 limits assumed): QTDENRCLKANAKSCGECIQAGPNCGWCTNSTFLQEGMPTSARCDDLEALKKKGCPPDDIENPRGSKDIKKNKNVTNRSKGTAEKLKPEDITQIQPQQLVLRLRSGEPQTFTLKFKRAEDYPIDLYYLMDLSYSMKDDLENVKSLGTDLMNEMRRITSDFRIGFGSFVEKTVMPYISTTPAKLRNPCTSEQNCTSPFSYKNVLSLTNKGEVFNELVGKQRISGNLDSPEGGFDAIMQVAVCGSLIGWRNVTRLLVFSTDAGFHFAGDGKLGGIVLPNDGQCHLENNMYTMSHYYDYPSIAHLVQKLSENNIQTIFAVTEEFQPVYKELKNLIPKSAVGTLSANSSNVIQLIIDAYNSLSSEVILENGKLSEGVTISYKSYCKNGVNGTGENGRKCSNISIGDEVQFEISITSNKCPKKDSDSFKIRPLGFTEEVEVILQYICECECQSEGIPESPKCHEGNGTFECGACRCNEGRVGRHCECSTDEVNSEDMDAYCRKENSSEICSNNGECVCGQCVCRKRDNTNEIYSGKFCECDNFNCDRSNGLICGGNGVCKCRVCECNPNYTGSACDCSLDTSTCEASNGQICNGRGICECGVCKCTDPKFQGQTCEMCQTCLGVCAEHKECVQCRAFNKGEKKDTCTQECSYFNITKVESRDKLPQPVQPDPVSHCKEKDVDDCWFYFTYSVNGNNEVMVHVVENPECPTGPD

Sequence of human integrin αVβ8 (P06756 31-992 limits assumed): as the sequence (P06756 31-992 limits assumed) above
Sequence of human integrin αVβ8 (P26012 43-684 limits assumed): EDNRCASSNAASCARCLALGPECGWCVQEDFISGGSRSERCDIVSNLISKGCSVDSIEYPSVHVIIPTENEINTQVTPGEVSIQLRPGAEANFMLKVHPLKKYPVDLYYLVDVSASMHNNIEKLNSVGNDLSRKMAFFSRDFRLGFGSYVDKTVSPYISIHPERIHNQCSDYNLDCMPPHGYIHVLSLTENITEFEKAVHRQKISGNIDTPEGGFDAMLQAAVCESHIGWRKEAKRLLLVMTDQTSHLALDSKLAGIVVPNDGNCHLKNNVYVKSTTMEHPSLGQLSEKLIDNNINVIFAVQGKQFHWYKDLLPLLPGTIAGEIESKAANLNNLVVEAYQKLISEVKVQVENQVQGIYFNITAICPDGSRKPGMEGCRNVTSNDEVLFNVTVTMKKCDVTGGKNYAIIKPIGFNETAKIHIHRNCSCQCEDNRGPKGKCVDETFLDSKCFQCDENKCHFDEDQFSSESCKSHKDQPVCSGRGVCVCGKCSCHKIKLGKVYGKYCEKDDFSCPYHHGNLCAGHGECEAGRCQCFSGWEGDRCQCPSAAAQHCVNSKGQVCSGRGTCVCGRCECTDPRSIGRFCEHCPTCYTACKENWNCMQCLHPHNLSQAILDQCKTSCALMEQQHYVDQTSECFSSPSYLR
Sequence of human integrin αVβ6 (P06756 31-992 limits assumed): as the sequence (P06756 31-992 limits assumed) above
Sequence of human integrin αVβ6 (P18564 22-707 limits assumed): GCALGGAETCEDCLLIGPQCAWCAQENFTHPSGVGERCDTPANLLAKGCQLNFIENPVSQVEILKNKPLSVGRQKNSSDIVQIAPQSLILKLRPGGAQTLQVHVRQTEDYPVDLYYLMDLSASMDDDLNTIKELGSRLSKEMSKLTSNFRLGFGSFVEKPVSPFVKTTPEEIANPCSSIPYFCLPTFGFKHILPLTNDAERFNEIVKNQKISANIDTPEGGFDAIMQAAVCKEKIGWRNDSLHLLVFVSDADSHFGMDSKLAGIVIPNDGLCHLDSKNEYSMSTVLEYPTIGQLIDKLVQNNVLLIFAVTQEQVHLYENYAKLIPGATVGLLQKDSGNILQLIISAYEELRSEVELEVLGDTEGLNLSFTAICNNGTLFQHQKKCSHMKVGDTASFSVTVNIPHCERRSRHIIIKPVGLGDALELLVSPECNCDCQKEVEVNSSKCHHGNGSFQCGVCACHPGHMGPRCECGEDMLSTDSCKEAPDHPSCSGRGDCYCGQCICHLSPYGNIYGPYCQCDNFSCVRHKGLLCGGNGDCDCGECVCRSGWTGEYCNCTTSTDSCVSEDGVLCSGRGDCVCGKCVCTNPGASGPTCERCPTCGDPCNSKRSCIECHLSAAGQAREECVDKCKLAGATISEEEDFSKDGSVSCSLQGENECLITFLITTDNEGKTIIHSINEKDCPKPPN

On to `Cc1ncnc(C)c1C1(C(=O)N[C@@H](CCOCCCCc2ccc3c(n2)NCCC3)C(=O)O)CC1` [Compound 41, N-(1-(4,6-dimethylpyrimidin-5-yl)cyclopropane-1-carbonyl)-O-(4-(5,6,7,8-tetrahydro-1,8-naphthyridin-2-yl)butyl)-L-homoserine], for which the IC50 at human integrin αVβ8 was 0.05 to 0.15 µM; on human integrin αVβ6, at least 0.5 µM; on human integrin αVβ1, below 0.05 µM.
For `Cc1nccnc1C1(C(=O)N[C@@H](CCOCCCCc2ccc3c(n2)NCCC3)C(=O)O)CC1` [Compound 42, N-(1-(3-methylpyrazin-2-yl)cyclopropane-1-carbonyl)-O-(4-(5,6,7,8-tetrahydro-1,8-naphthyridin-2-yl)butyl)-L-homoserine], the concentration for half-maximal inhibition (IC50) on human integrin αVβ8 is below 0.05 µM; at human integrin αVβ6, at least 0.5 µM; on human integrin αVβ1, below 0.05 µM.
For `N#Cc1cc(F)ccc1C1(C(=O)N[C@@H](CCOCCCCc2ccc3c(n2)NCCC3)C(=O)O)CC1` [Compound 43, N-(1-(2-cyano-4-fluorophenyl)cyclopropane-1-carbonyl)-O-(4-(5,6,7,8-tetrahydro-1,8-naphthyridin-2-yl)butyl)-L-homoserine], the 50% inhibitory concentration (IC50) is below 0.05 µM on human integrin αVβ8, at least 0.5 µM on human integrin αVβ6 and below 0.05 µM on human integrin αVβ1.
In the case of `COc1nccc(Cl)c1C1(C(=O)N[C@@H](CCOCCCCc2ccc3c(n2)NCCC3)C(=O)O)CC1` [Compound 44, N-(1-(4-chloro-2-methoxypyridin-3-yl)cyclopropane-1-carbonyl)-O-(4-(5,6,7,8-tetrahydro-1,8-naphthyridin-2-yl)butyl)-L-homoserine], the values for the IC50 at human integrin αVβ8, at human integrin αVβ6 and on human integrin αVβ1 were 0.05 to 0.15 µM, at least 0.5 µM and below 0.05 µM, respectively.
In the case of `N#Cc1ccccc1C1(C(=O)N[C@@H](CCOCCCCc2ccc3c(n2)NCCC3)C(=O)O)CC1` [Compound 45, N-(1-(2-cyanophenyl)cyclopropane-1-carbonyl)-O-(4-(5,6,7,8-tetrahydro-1,8-naphthyridin-2-yl)butyl)-L-homoserine], the IC50 at human integrin αVβ8 is 0.05 to 0.15 µM; on human integrin αVβ6, at least 0.5 µM; on human integrin αVβ1, below 0.05 µM.
With `CS(=O)(=O)c1ccccc1C1(C(=O)N[C@@H](CCOCCCCc2ccc3c(n2)NCCC3)C(=O)O)CC1` [Compound 46, N-(1-(2-(methylsulfonyl)phenyl)cyclopropane-1-carbonyl)-O-(4-(5,6,7,8-tetrahydro-1,8-naphthyridin-2-yl)butyl)-L-homoserine], the IC50 on human integrin αVβ8 is 0.25 to 0.5 µM; on human integrin αVβ6, at least 0.5 µM; at human integrin αVβ1 it was 0.05 to 0.15 µM.
Turning to `Cc1cncc(F)c1C1(C(=O)N[C@@H](CCOCCCCc2ccc3c(n2)NCCC3)C(=O)O)CC1` [Compound 47, N-(1-(3-fluoro-5-methylpyridin-4-yl)cyclopropane-1-carbonyl)-O-(4-(5,6,7,8-tetrahydro-1,8-naphthyridin-2-yl)butyl)-L-homoserine], the IC50 on human integrin αVβ8 was below 0.05 µM; at human integrin αVβ6 it was 0.25 to 0.5 µM; at human integrin αVβ1 it was below 0.05 µM.
For `O=C(O)[C@H](CCOCCCCc1ccc2c(n1)NCCC2)NC(=O)C1(c2cncnc2C(F)(F)F)CC1` [Compound 48, O-(4-(5,6,7,8-tetrahydro-1,8-naphthyridin-2-yl)butyl)-N-(1-(4-(trifluoromethyl)pyrimidin-5-yl)cyclopropane-1-carbonyl)-L-homoserine], the values for the IC50 on human integrin αVβ8, at human integrin αVβ6 and at human integrin αVβ1 were below 0.05 µM, at least 0.5 µM and below 0.05 µM, respectively.
As for `O=C(O)[C@H](CCOCCCCc1ccc2c(n1)NCCC2)NC(=O)C1(c2ncncc2Cl)CC1` [Compound 49, N-(1-(5-chloropyrimidin-4-yl)cyclopropane-1-carbonyl)-O-(4-(5,6,7,8-tetrahydro-1,8-naphthyridin-2-yl)butyl)-L-homoserine], the half-inhibitory concentration (IC50) at human integrin αVβ8 is below 0.05 µM; on human integrin αVβ6 it was at least 0.5 µM; on human integrin αVβ1 it was below 0.05 µM.
On to `COc1nccnc1C1(C(=O)N[C@@H](CCOCCCCc2ccc3c(n2)NCCC3)C(=O)O)CC1` [Compound 50, N-(1-(3-methoxypyrazin-2-yl)cyclopropane-1-carbonyl)-O-(4-(5,6,7,8-tetrahydro-1,8-naphthyridin-2-yl)butyl)-L-homoserine], for which the IC50 was 0.05 to 0.15 µM at human integrin αVβ8, at least 0.5 µM at human integrin αVβ6 and below 0.05 µM at human integrin αVβ1.
Take `Cn1ncc(Cl)c1C1(C(=O)N[C@@H](CCOCCCCc2ccc3c(n2)NCCC3)C(=O)O)CC1` [Compound 51, N-(1-(4-chloro-1-methyl-1H-pyrazol-5-yl)cyclopropane-1-carbonyl)-O-(4-(5,6,7,8-tetrahydro-1,8-naphthyridin-2-yl)butyl)-L-homoserine]: the results for the IC50 on human integrin αVβ8, at human integrin αVβ6 and at human integrin αVβ1 were below 0.05 µM, at least 0.5 µM and below 0.05 µM, respectively.
Consider `O=C(O)[C@H](CCOCCCCc1ccc2c(n1)NCCC2)NC(=O)C1(c2ncccc2CF)CC1` [Compound 52, N-(1-(3-(fluoromethyl)pyridin-2-yl)cyclopropane-1-carbonyl)-O-(4-(5,6,7,8-tetrahydro-1,8-naphthyridin-2-yl)butyl)-L-homoserine], for which the IC50 is below 0.05 µM at human integrin αVβ8, at least 0.5 µM at human integrin αVβ6 and below 0.05 µM at human integrin αVβ1.
Turning to `COCc1cccnc1C1(C(=O)N[C@@H](CCOCCCCc2ccc3c(n2)NCCC3)C(=O)O)CC1` [Compound 53, N-(1-(3-(methoxymethyl)pyridin-2-yl)cyclopropane-1-carbonyl)-O-(4-(5,6,7,8-tetrahydro-1,8-naphthyridin-2-yl)butyl)-L-homoserine], the concentration for half-maximal inhibition (IC50) was 0.05 to 0.15 µM at human integrin αVβ8, at least 0.5 µM on human integrin αVβ6 and 0.05 to 0.15 µM at human integrin αVβ1.
On to `Cn1nccc1C1(C(=O)N[C@@H](CCOCCCCc2ccc3c(n2)NCCC3)C(=O)O)CC1` [Compound 54, N-(1-(1-methyl-1H-pyrazol-5-yl)cyclopropane-1-carbonyl)-O-(4-(5,6,7,8-tetrahydro-1,8-naphthyridin-2-yl)butyl)-L-homoserine], for which the IC50 on human integrin αVβ8 is 0.05 to 0.15 µM; at human integrin αVβ6, at least 0.5 µM; on human integrin αVβ1, below 0.05 µM.
For `O=C(O)[C@H](CCOCCCCc1ccc2c(n1)NCCC2)NC(=O)C1(n2ccc(Cl)n2)CC1` [Compound 55, N-(1-(3-chloro-1H-pyrazol-1-yl)cyclopropane-1-carbonyl)-O-(4-(5,6,7,8-tetrahydro-1,8-naphthyridin-2-yl)butyl)-L-homoserine] the same measures were 0.05 to 0.15 µM, at least 0.5 µM and below 0.05 µM.
Consider `COc1cccc(C#N)c1C1(C(=O)N[C@@H](CCOCCCCc2ccc3c(n2)NCCC3)C(=O)O)CC1` [Compound 56, N-(1-(2-cyano-6-methoxyphenyl)cyclopropane-1-carbonyl)-O-(4-(5,6,7,8-tetrahydro-1,8-naphthyridin-2-yl)butyl)-L-homoserine], for which the IC50 on human integrin αVβ8 was below 0.05 µM; at human integrin αVβ6 it was at least 0.5 µM; on human integrin αVβ1, 0.05 to 0.15 µM.
With `O=C(O)[C@H](CCOCCCCc1ccc2c(n1)NCCC2)NC(=O)C1(c2cccnc2C(F)F)CC1` [Compound 57, N-(1-(2-(difluoromethyl)pyridin-3-yl)cyclopropane-1-carbonyl)-O-(4-(5,6,7,8-tetrahydro-1,8-naphthyridin-2-yl)butyl)-L-homoserine], the results for the half-maximal inhibitory concentration (IC50) on human integrin αVβ8, at human integrin αVβ6 and at human integrin αVβ1 were 0.05 to 0.15 µM, at least 0.5 µM and below 0.05 µM, respectively.
